Consider 135 compounds from a melting point compilation (Tetko et al.).

The conditions of this data set: a range is the spread between reports.

Consider `OCC(O)c1ccccc1` (stereo not given), for which the melting point lay in the range of 67 to 68 °C. Turning to `CCCCCCC(=O)OCC`, the melting point was -66.1 to -66 °C. With `CN(C)c1ccc(/N=N/c2ccccc2C(=O)O)cc1`, the melting point lay within 180 to 183 °C. Regarding `CCCCCCCCCCCCCCCC(=O)OC`, the melting point fell in the range of 30 to 31 °C. In turn, `CCC(N)=O` registered a melting point of 78 to 81.3 °C. For the compound `O=C(O)c1c(F)c(F)c(F)c(F)c1F`, the melting point was 101 to 102 °C.

As for `Cc1ccc(S(=O)(=O)Cl)cc1`, the melting point was in the range of 68 to 71 °C. The same measure for `C1CCCCCCCCCCCCCC1`: 61.3 to 62 °C; for `Nc1ccc(Cl)cc1C(=O)c1ccccc1`: 96 to 99 °C. For the compound `O=C(/C=C/c1ccc2ccccc2c1)/C=C/c1ccc2ccccc2c1`, the melting point is 242 to 245 °C. Consider `O=C(O)c1cc(Br)ccc1Br`, for which the melting point lay in the range of 155 to 157 °C.

`CC(C)CCCC(C)C1CCC2C3CC(O)C4(O)CC(O)CCC4(C)C3CCC12C` (stereo not given) had a melting point of 237 to 238 °C.

For the compound `N#Cc1ccccc1C=O`, the melting point lay in the range of 104 to 108 °C. With `Cc1ccnc(C)c1` the figure was -64 to -60 °C. In turn, `C=CC(CC)CC` displayed a melting point of -128 to -127 °C. The compound `BrC1c2ccccc2-c2ccccc21` registered a melting point of 103 to 104 °C.

`CCOC(=O)C(O)(c1ccccc1)c1ccccc1` registered a melting point of 30 to 34 °C.

Regarding `C=CCc1ccc(O)c(OC)c1`, the melting point was -10 to -9 °C.

`c1ccc(-c2c3ccccc3c(-c3ccccc3)c3ccccc23)cc1` registered a melting point of 246 to 251 °C.

In turn, `CCOc1ccc(C(C)=O)cc1` yielded a melting point of 37 to 39 °C. `O=Cc1cc(Cl)cc(Cl)c1` showed a melting point of 63 to 68 °C.

Regarding `CC(C)C1CC1`, the melting point is -113 °C. With `CC(C)CCC(=O)O` the figure was -35 to -33 °C. In turn, `O=[N+]([O-])c1ccc(F)cc1F` had a melting point of 9 to 10 °C. In turn, `Clc1ccc(-c2ccc(Cl)cc2)cc1` gave a melting point of 149 °C. The compound `COc1ccc(C(=O)O)cc1O` returned a melting point of 252 to 253 °C. With `CC(=CC(=O)O)C(=O)O` the figure was 90 to 93.5 °C; with `Cc1cccc2c1ccc1cc(C(C)C)ccc12`, 99 to 101 °C. Regarding `CC(=O)O[Si](C)(OC(C)=O)OC(C)=O`, the melting point was 40.5 to 43 °C. `O=C(O)C(=O)c1ccccc1`: the melting point is 65 to 66 °C.

Take `COc1cccc(OC)c1O`: the melting point lay within 54 to 56.5 °C.

Compound `CC#CCO` yielded a melting point of -2.2 to -2 °C. Regarding `O=Cc1ccc(I)cc1`, the melting point was in the range of 77 to 78 °C. `Oc1ccccc1Cl` gave a melting point of 7 to 9.8 °C.

Compound `O=C(O)c1ccc2c(c1)OCO2` returned a melting point of 229 to 233 °C. `O=Cc1ccccc1[N+](=O)[O-]` gave a melting point of 43.5 to 46 °C.

In turn, `CCOC(=O)C(=O)Nc1ccccc1` registered a melting point of 65.5 to 67 °C. Take `CCCc1ccccc1`: the melting point was -100 to -99 °C. `c1ccc(C(=C(c2ccccc2)c2ccccc2)c2ccccc2)cc1` gave a melting point of 224 to 225 °C. In turn, `c1ccc2c(c1)ccc1ccccc12` had a melting point of 99 to 101 °C. As for `Cc1cc(C)nc(N)n1`, the melting point was 152 to 153 °C.

With `Oc1ccccc1-c1ccccc1`, the melting point fell in the range of 56 to 60 °C. The compound `CC(C)=CC(C)C` gave a melting point of -128 °C. Compound `O=P(c1ccccc1)(c1ccccc1)c1ccccc1` came in with a melting point of 156 °C. For `CCCCOC(=O)c1ccc(N)cc1`, the melting point is 57.5 to 58 °C. As to `Cc1cccc(C)c1[N+](=O)[O-]`, the melting point is 15 to 16 °C. In turn, `FC(F)(F)c1ccc(Cl)cc1` returned a melting point of -36 to -33 °C.

Compound `CC(C)(N)CO` gave a melting point of 25.5 to 30 °C.

Regarding `Nc1ccc([N+](=O)[O-])cc1C(=O)c1ccccc1`, the melting point lay within 163 to 167 °C. The compound `Nc1ccccc1[N+](=O)[O-]` displayed a melting point of 71 to 73 °C. `c1ccc(-n2cccc2)cc1`: the melting point fell in the range of 59 to 62 °C. For `ClC(Cl)C(Cl)(Cl)Cl`, the melting point is -29 to -28.8 °C. Take `CCOC(=O)CCCCCCCCC(=O)OCC`: the melting point lay within 2 to 5 °C. In turn, `c1ccc2[nH]c(-c3cscn3)nc2c1` had a melting point of 300 °C. With `O=C1C(Cl)=CC(=NCl)C=C1Cl` the figure was 66 to 67 °C.

With `Cc1cc(C=O)c(C)n1-c1ccccc1`, the melting point is 88.5 to 89 °C. With `O=C(O)Cc1cccc(C(F)(F)F)c1` the figure was 77 to 78 °C.

Turning to `Nc1ccccc1`, the melting point was -6.3 to -6 °C. `CCc1ccccc1N`: the melting point was -47 to -44 °C. `O=C(O)c1cccc(Br)c1` had a melting point of 155 to 157 °C. `Oc1cccc(C(F)(F)F)c1` gave a melting point of -2 to -1.8 °C. In the case of `O=C(O)C(Br)(Br)Br`, the melting point is 132 °C. The same measure for `CC(C)OC(=O)C=CC(=O)OC(C)C`: 2 to 2.1 °C. Compound `O=[N+]([O-])c1ccc(C=NO)cc1` showed a melting point of 128 to 130 °C. For `CC(=O)c1cccc(C(C)=O)c1`, the melting point lay within 32 to 36 °C. The same measure for `C=CCCCCCCCCCC`: -37 to -35 °C; for `CC(=O)NBr`: 104 °C; for `C=C(C)c1ccc(C(=C)C)cc1`: 63.5 to 66 °C. For `O=C(O)c1cc(Br)cc(Br)c1O`, the melting point lay in the range of 226 to 228 °C. As to `N#Cc1ccccc1O`, the melting point lay within 93.5 to 98 °C. With `Cc1ccc2ccccc2n1` the figure was -2 to -1.5 °C; with `O=C(O)Cc1ccc(Cl)cc1`, 103 to 106 °C; with `CC1=c2ccccc2=NC1c1ccccc1` (stereo not given), 91 to 91.5 °C. As to `OCC(O)CO`, the melting point is 17.8 to 18.2 °C. For `O=C(O)c1ccc2c(c1)C(=O)OC2=O`, the melting point is 162 to 167 °C.

Regarding `ClCC(Cl)CCl`, the melting point was -15 to -14 °C. Compound `CC1(O)CCCCC1` yielded a melting point of 25 to 26 °C.

`CC(CO)(CO)C(=O)O` returned a melting point of 189 to 190 °C. With `N#Cc1c(F)c(F)c(F)c(C#N)c1F`, the melting point lay in the range of 77 to 79 °C. For `CCC(C)=O`, the melting point was -87 to -86 °C.

The compound `CCOS(=O)(=O)OCC` registered a melting point of -25 to -24 °C. The compound `NC(=O)c1ccccc1Cl` had a melting point of 142 to 143 °C. In turn, `Cc1nc(-c2ccc(-c3nc(C)c(-c4ccccc4)o3)cc2)oc1-c1ccccc1` yielded a melting point of 232 to 234 °C. As for `CCCCCCCCCCCCOC(=O)c1cc(O)c(O)c(O)c1`, the melting point was 96.5 to 97 °C. In turn, `COc1ccc(C(C)=O)c(OC)c1` displayed a melting point of 40 to 41 °C. `CCC(C)C(C)(C)C` (stereo not given): the melting point is -112 °C. In the case of `N#CCC(N)=O`, the melting point lay within 120 to 122 °C. For `N#Cc1ccc(-c2ccc(C#N)cc2)cc1`, the melting point fell in the range of 234 to 238 °C. In turn, `O=C(O)c1cccc(Cl)c1[N+](=O)[O-]` yielded a melting point of 237 to 238 °C. For the compound `O=C(O)CO`, the melting point was in the range of 77 to 80 °C. With `OC(C(F)(F)F)C(F)(F)F` the figure was -4 to -3 °C; with `OCC(CO)(CO)CO`, 258 to 262 °C; with `CC(C)C1(C)N=C(c2ncccc2C(=O)O)NC1=O` (stereo not given), 171 to 172 °C.

Turning to `Cc1ccnc(N)n1`, the melting point came to 160 °C. In turn, `Cc1ccccc1Cc1ccccc1` displayed a melting point of 6.6 to 7 °C. Compound `Cc1cc(O)ccc1Br` showed a melting point of 59 to 64 °C. For the compound `Brc1ccc(Br)cc1`, the melting point is 87 to 88 °C. With `Nc1ccc(Cl)c([N+](=O)[O-])c1` the figure was 100 to 103 °C; with `ClCC(Cl)Cl`, -37 to -35 °C; with `NC(CC(=O)O)C(=O)O` (stereo not given), 270 to 275 °C. Regarding `COc1ccc(Cl)cc1Cl`, the melting point fell in the range of 26 to 28.5 °C.

Consider `O=C(O)c1cc([N+](=O)[O-])ccc1O`, for which the melting point lay within 230 to 232 °C. In turn, `N#CCc1ccc(CC#N)cc1` showed a melting point of 95 to 96 °C. The same measure for `CC[N+](=O)[O-]`: -89.5 to -89 °C.

As for `CCCOC(=O)CC`, the melting point is -76 to -75.9 °C. The same measure for `O=C(C=CC=Cc1ccc2c(c1)OCO2)N1CCCCC1`: 131 to 132 °C; for `Clc1cc(Cl)c(Cl)cc1Cl`: 139 to 140 °C; for `CCC(C)(CO)CO`: 40.3 to 44 °C.

In turn, `Oc1cccc2ccccc12` gave a melting point of 95 to 96 °C. With `CCCC(C)C1(CC)C(=O)NC(=O)NC1=O` (stereo not given) the figure was 130 °C.

In the case of `O=C(O)Cc1cccc2ccccc12`, the melting point lay within 130 to 135 °C. Compound `Nc1ccccc1C(F)(F)F` registered a melting point of -34 to -29 °C. With `CCCCc1ccccc1` the figure was -88 to -87.9 °C; with `CSc1ccc(C(=O)O)cc1`, 194 to 195 °C; with `CC1CCCC1`, -143 to -142 °C. With `CC(Br)CCCBr` (stereo not given), the melting point was -34.4 to -34 °C. In turn, `O=Cc1cc(Br)c(O)c(Br)c1` yielded a melting point of 181 to 182 °C.

In turn, `CCCc1ccccc1C` came in with a melting point of -60.3 to -60 °C.

`Cc1ccco1` returned a melting point of -89 to -87.5 °C. For `CCC(C)OC(C)=O` (stereo not given), the melting point was -99 to -98.9 °C. `O=C(Cl)c1ccccc1Br` showed a melting point of 10 to 11 °C. In turn, `CCCCC1C(=O)N(c2ccccc2)N(c2ccccc2)C1=O` registered a melting point of 105 to 107 °C.

The compound `CC1(C)COC(=O)C1O` (stereo not given) came in with a melting point of 90 to 92 °C.

`CC(=O)NCCCCCC(=O)O` displayed a melting point of 104 °C. With `COc1ccc(N)c(OC)c1` the figure was 33.5 to 35 °C; with `COc1ccc(O)cc1`, 55 to 57 °C; with `OCC1c2ccccc2-c2ccccc21`, 104 to 106 °C. The compound `Brc1c(Br)c(Br)c(Oc2c(Br)c(Br)c(Br)c(Br)c2Br)c(Br)c1Br` displayed a melting point of 305 to 306 °C. With `O=[N+]([O-])c1ccc(Oc2ccc(C(F)(F)F)cc2[N+](=O)[O-])cc1`, the melting point fell in the range of 90 to 94 °C. With `O=C(CCNNC(=O)c1ccncc1)NCc1ccccc1` the figure was 151 to 152 °C; with `CCCCCCC=O`, -43.3 to -43 °C. In turn, `CC(C)=CC(C)(C)C` returned a melting point of -106 °C. Consider `Brc1ccccc1`, for which the melting point was -31 to -30.6 °C.

The compound `CN(C)C(=O)Nc1cccc(C(F)(F)F)c1` gave a melting point of 164 °C. `O=C(O)c1ccc(C(=O)c2ccccc2)cc1` gave a melting point of 198 to 199 °C.
